Results: paper PMC5434815, “The role of histidines in amyloid β fibril assembly” (Febs Letters, 2017)
Values joined by “and” are separate entries in the source; they are usually repeats but may differ in a detail not shown here. Equal values may be shown once. Read-outs that look alike come from different tables or passages of the source.

Experiments:
[1] = system: corresponding immobilised fibrils (fibrillar form of Aβ); assay: SPR association rate k(on) of Aβ monomers onto immobilised fibrils, relative to Aβ1–40 wt; type: binding; details: for RA, relative association (k(on) versus Aβ1–40 wt): 150 mM NaCl, 25 °C, 20 μL·min^−1, CM5 chip, fibrils at 3500 RU, end state after 60 s injection, Aβ1–40 wt = 1
Experimental: (§1) Recombinant variants of Aβ1–40, Aβ1–40 H6A, Aβ1–40 H13A, Aβ1–40 H14A and Aβ1–40 H6A, H13A, H14A were obtained from AlexoTech (Umeå, Sweden). All lyophilised peptides were solubilised in 20 mM NaOH and separated by size‐exclusion chromatography (Superdex 10/300, GE Life Science, Uppsala, Sweden) in PBS with 2 mM EDTA, 5 mM NaOH and 150 mM NaCl. The pH of all purified peptide solutions was adjusted using a stock solution of phosphate or acetate buffer to give a final buffer concentration corresponding to 20 mM phosphate (pH 7.4) or acetate (pH 5.5) and 150 mM NaCl.
(§2) The interaction study between the fibrillar form of Aβ and its monomeric form was performed using a BIAcore® 3000 biosensor (GE Healthcare®, Uppsala, Sweden) equipped with a CM5 sensor chip (GE Healthcare®). First, the fibrillar form of Aβ was immobilised at a density of 3500 response units (RUs) on the dextran layer of the chip using standard amino coupling reagents at pH 4.0. All SPR experiments were performed at 25 °C at a flow rate of 20 μL·min^−1 in either a 20 mM phosphate buffer (pH 7.4) or 20 mM acetate buffer (pH 5.5). All experiments were performed in the presence of 150 mM NaCl, which represents a physiological ion‐strength.
Due to the polymeric nature of amyloid fibrils, the covalent immobilisation on the sensor chip, likely only occurs in minor fraction of the accessible amino groups. This treatment is therefore not anticipated to influence the overall incorporation of monomers in a significant manner. However, the influence from using immobilised fibrils or the dextran layer cannot be fully excluded and should therefore be disclosed.
(§3) All sensograms were corrected for nonspecific interactions using a reference surface according to standard procedures 16.
Probing free monomeric Aβ against immobilised fibrils using SPR is a frequently used technique for measuring the intrinsic kinetic properties of Aβ polymerisation 11, 14, 17, 18, 19.
Fibrils from recombinant variants of Aβ1–40, Aβ1–40 H6A, Aβ1–40 H13A, Aβ1–40 H14A and Aβ1–40 H6A, H13A, H14A were prepared by prolonged incubation in either PBS (pH 7.4) or acetate buffer pH 5.5 containing 150 mM NaCl. Fibrils immobilised on a CM5 chip were then probed with their monomeric counterpart at different concentrations of Aβ monomers and analysed by SPR. Samples were injected for exactly 60 s and the maximal value at the end state of each injection (indicated by arrow 1 in Fig. 1A) was plotted as a function of the monomeric concentration, Fig. 2. This generates an association rate at each point of measurement. A guideline is given in the figures to illustrate the linearity.
By comparing the rate between the different Aβ variants, it is possible to determine relative differences in k(on).

[2] = system: corresponding immobilised fibrils (fibrillar form of Aβ); assay: SPR dissociation rate k(off) of Aβ fibrils, slow phase, relative to Aβ1–40 wt; type: binding; details: for RD, relative dissociation (k(off) versus Aβ1–40 wt): 150 mM NaCl, 25 °C, after 2 μM monomer injection, slow phase, points before 100 s excluded, one exponential decay, Aβ1–40 wt = 1
Experimental: as §1, §2, §3
Note that the dissociation phase exposes a biphasic curvature. This is highly representative and frequently observed when performing these kinds of experiments. […] All analyses of decay rates within this work are therefore exclusively focused on the slower second phase of dissociation.
In contrast to the association rate, kon, the rate of dissociation, koff, is independent of the concentration of monomers. Subsequent to probing, the immobilised fibrils with free monomers, the rate of dissociation can be seen as a decrease in the signal over time.
Because the latter part of the curve, representing the slower phase of dissociation (indicated by arrow 3 Fig. 1), strongly dominates the interaction strength, we have exclusively focused on this part, and no points before 100 s were included in the curve. The dissociation curve could then be fitted to a one exponential decay.

[3] = system: immobilised Aβ fibrils / fibrillar end; assay: Fibril stability (KD, RD/RA, potentiation factor) from SPR association and dissociation; type: binding; details: 25 °C, relative to Aβ1–40 wt
Experimental: as §2, §3
While a simple interaction between, for example, a receptor and ligand can easily be determined through saturation experiments, this cannot be done with polymers since they, per definition, cannot be saturated.
This problem can, however, be circumvented by defining the concentration of free monomers where the fibrils are at steady state, i.e. the concentration of free monomers where neither association nor dissociation can be detected. We have previously shown that the KD for Aβ1–40 wt at neutral pH is around 100 nM and around 1 nM at pH 5.5 11, 13. The KD at neutral pH has also been investigated by Hasegawa and co‐workers 14 with similar results. All figures used here are therefore given as relative values to the KD for Aβ1–40 wt corresponding to 100 nM at neutral pH and 1 nM at pH 5.5.
Multiplying the relative RD/RA with the KD for Aβ 1–40 wt will then give the KD for the histidine derivatives.

[4] = biological target: immobilised Aβ fibrils / fibrillar end; details: cited from earlier work
Excerpt: Table 1 Relative change of association and dissociation rates of Aβ1–40 wt and the His‐Ala Aβ variants, and the potentiation of Aβ fibril formation as a function of lowering the pH. RA, Relative association; RD, Relative dissociation; PnF, Potentiation factor KD(pH7.4)/KD(pH5.5) | column: pH 7.4 / KD (nM); pH 5.5 / KD (nM) || The formation of Aβ fibrils requires an initial nucleation event, and fibril elongation involves the addition of monomers to an existing fibril. […] The KD for Aβ1–40 can be as much as 120 times lower at pH 4.5 than pH 7.4. […] It is therefore of interest to elucidate the stabilising factors associated with fibril stability and the potentiating ... || (+ 3 further places)

| Substance | RD/RA ([3]; pH 5.5, 150 mM NaCl) | RD/RA ([3]; pH 7.4, 150 mM NaCl) | RA, relative association (k(on) versus Aβ1–40 wt) ([1]; pH 5.5, 20 mM acetate) | RA, relative association (k(on) versus Aβ1–40 wt) ([1]; pH 7.4, 20 mM phosphate) | RD, relative dissociation (k(off) versus Aβ1–40 wt) ([2]; pH 5.5, 20 mM acetate) | RD, relative dissociation (k(off) versus Aβ1–40 wt) ([2]; pH 7.4, 20 mM phosphate) | Kd ([4]; neutral pH (pH 7.4), reference value for the relative KDs, read-out: KD (critical concentration)) | Kd ([4]; neutral pH, read-out: critical concentration (KD)) [µM] | decrease of KD at pH 4.5 versus pH 7.4 (times lower) ([4]; pH 4.5 vs pH 7.4, "as much as") [times] | Kd ([4]; pH 5.5, reference value for the relative KDs, read-out: KD) | rate of association, in words ([1]; pH 5.5 versus pH 7.4) | stabilisation / dissociation on lowering the pH, in words ([2]; pH 7.4 to 5.5) | critical concentration (KD), in words ([4]; neutral pH, compared with Aβ1–40) |
| --- | --- | --- | --- | --- | --- | --- | --- | --- | --- | --- | --- | --- | --- |
| Aβ1–40 H14A |  | 7.94 | 1.01 | 0.34 | 2.22 | 2.70 |  |  |  |  |  |  |  |
| Aβ1–40 wt: wild‐type amyloid β 1–40, recombinant, obtained from AlexoTech (Umeå, Sweden) [reference compound] | 1 | 1 | 1 | 1 | 1 | 1 | ~0.1 µM and 0.1 µM | ~0.1 | ≤ 120 | ~0.001 µM and 0.001 µM | much faster rate of association | significantly stabilised by the decrease in pH |  |
| Aβ1–42: one of the two dominant forms of amyloid β |  |  |  |  |  |  |  |  |  |  |  |  | slightly lower |

Second part, led by results:

| RD/RA ([3]; pH 5.5, 150 mM NaCl) | RD/RA ([3]; pH 7.4, 150 mM NaCl) | Substance | RA, relative association (k(on) versus Aβ1–40 wt) ([1]; pH 5.5, 20 mM acetate) | RA, relative association (k(on) versus Aβ1–40 wt) ([1]; pH 7.4, 20 mM phosphate) | RD, relative dissociation (k(off) versus Aβ1–40 wt) ([2]; pH 5.5, 20 mM acetate) | RD, relative dissociation (k(off) versus Aβ1–40 wt) ([2]; pH 7.4, 20 mM phosphate) | Kd ([4]; neutral pH (pH 7.4), reference value for the relative KDs, read-out: KD (critical concentration)) | Kd ([4]; neutral pH, read-out: critical concentration (KD)) [µM] | decrease of KD at pH 4.5 versus pH 7.4 (times lower) ([4]; pH 4.5 vs pH 7.4, "as much as") [times] | Kd ([4]; pH 5.5, reference value for the relative KDs, read-out: KD) | rate of association, in words ([1]; pH 5.5 versus pH 7.4) | stabilisation / dissociation on lowering the pH, in words ([2]; pH 7.4 to 5.5) | critical concentration (KD), in words ([4]; neutral pH, compared with Aβ1–40) |
| --- | --- | --- | --- | --- | --- | --- | --- | --- | --- | --- | --- | --- | --- |
| 5.31 | 12.27 | Aβ1–40 H6A, H13A, H14A: recombinant Aβ1–40 variant where all three histidines have been exchanged for alanine (DAEFRADSGYEVAAQKLVFFAEDVGSNKGAIIGLMVGGVV; Amyloid-beta protein 40; UniProt P05067 672-711, looked up, variant H6A H13A H14A) | 1.57 | 0.22 | 8.33 | 2.70 |  |  |  |  |  |  |  |
| 2.11 | 7.16 | Aβ1–40 H13A | 1.01 | 0.31 | 2.13 | 2.22 |  |  |  |  |  |  |  |
